Measurements from ChEMBL document CHEMBL3046580, “Synthesis of Some 2-Aryloxymethyl-1, 3, 4-thiadiazolo[2, 3-b]-quinazolin-4-ones and 2-Aryloxymethyl-5-substituted-1, 3, 4-thiadiazolo[3, 2-a]-s-triazin-7-thiones as Potential Biocides” (1990).

Columns and labels:
Type in all cases: functional
[1] = test system: Abutilon theophrasti; experiment: Herbicidal activity against Abutilon theophrasti (velvetleaf) assessed as killing at 6 kg/ha by post-emergent activity assay
[2] = test system: Bipolaris oryzae; experiment: Antifungal activity against Bipolaris oryzae assessed as fungus colony inhibition at 1000 ppm measured after 96 hr by agar dilution method
[3] = test system: Aspergillus niger; experiment: Antifungal activity against Aspergillus niger assessed as fungus colony inhibition at 1000 ppm measured after 96 hr by agar dilution method
[4] = test system: Sorghum halepense; experiment: Herbicidal activity against Sorghum halepense (Johnson grass) assessed as killing at 6 kg/ha by post-emergent activity assay
[5] = test system: Bipolaris oryzae; experiment: Antifungal activity against Bipolaris oryzae assessed as fungus colony inhibition at 10 ppm measured after 96 hr by agar dilution method
[6] = test system: Triticum aestivum; experiment: Herbicidal activity against Triticum aestivum (wheat) assessed as killing at 6 kg/ha by post-emergent activity assay
[7] = test system: Aspergillus niger; experiment: Antifungal activity against Aspergillus niger assessed as fungus colony inhibition at 100 ppm measured after 96 hr by agar dilution method
[8] = test system: Setaria viridis; experiment: Herbicidal activity against Setaria viridis (green foxtail) assessed as killing at 6 kg/ha by post-emergent activity assay
[9] = test system: Aspergillus niger; experiment: Antifungal activity against Aspergillus niger assessed as fungus colony inhibition at 10 ppm measured after 96 hr by agar dilution method
[10] = test system: Bipolaris oryzae; experiment: Antifungal activity against Bipolaris oryzae assessed as fungus colony inhibition at 100 ppm measured after 96 hr by agar dilution method
[11] = test system: Echinochloa crus-galli; experiment: Herbicidal activity against Echinochloa crus-galli (barnyard grass) assessed as killing at 6 kg/ha by post-emergent activity assay

## O=c1c2ccccc2nc2sc(COc3ccccc3Cl)nn12
[1]
  Activity: 20%
[2]
  inhibition at 1000 ppm: 61.4%
[3]
  inhibition at 1000 ppm: 51.3%
[4]
  Activity: 40%
[5]
  inhibition at 10 ppm: 30.8%
[6]
  Activity: 60%
[7]
  inhibition at 100 ppm: 30.2%
[8]
  Activity: 70%
[9]
  inhibition at 10 ppm: 19.2%
[10]
  inhibition at 100 ppm: 40.1%
[11]
  Activity: 20%

## S=c1nc(COc2ccc(Cl)cc2Cl)n2nc(COc3ccc(Cl)cc3Cl)sc2n1
[1]
  Activity: 100%
[2]
  inhibition at 1000 ppm: 90.4%
[3]
  inhibition at 1000 ppm: 88.6%
[4]
  Activity: 100%
[5]
  inhibition at 10 ppm: 61.4%
[6]
  Activity: 20%
[7]
  inhibition at 100 ppm: 74.4%
[8]
  Activity: 100%
[9]
  inhibition at 10 ppm: 64.5%
[10]
  inhibition at 100 ppm: 78.6%
[11]
  Activity: 100%

## S=c1nc(COc2ccc(Cl)cc2Cl)n2nc(COc3ccc(Cl)cc3)sc2n1
[1]
  Activity: 30%
[2]
  inhibition at 1000 ppm: 88.2%
[3]
  inhibition at 1000 ppm: 87.2%
[4]
  Activity: 40%
[5]
  inhibition at 10 ppm: 60.6%
[6]
  Activity: 50%
[7]
  inhibition at 100 ppm: 74.2%
[8]
  Activity: 20%
[9]
  inhibition at 10 ppm: 68.4%
[10]
  inhibition at 100 ppm: 75.4%
[11]
  Activity: 30%

## Cc1ccc(OCc2nn3c(-c4ccc(Cl)cc4)nc(=S)nc3s2)c(C)c1
[1]
  Activity: 90%
[2]
  inhibition at 1000 ppm: 60%
[3]
  inhibition at 1000 ppm: 52.3%
[4]
  Activity: 80%
[5]
  inhibition at 10 ppm: 31.2%
[6]
  Activity: 0%
[7]
  inhibition at 100 ppm: 31.4%
[8]
  Activity: 90%
[9]
  inhibition at 10 ppm: 20.4%
[10]
  inhibition at 100 ppm: 49.1%
[11]
  Activity: 90%

## Cc1ccc(OCc2nn3c(C)nc(=S)nc3s2)c(C)c1
[1]
  Activity: 20%
[2]
  inhibition at 1000 ppm: 59.5%
[3]
  inhibition at 1000 ppm: 51.4%
[4]
  Activity: 60%
[5]
  inhibition at 10 ppm: 27.4%
[6]
  Activity: 50%
[7]
  inhibition at 100 ppm: 30%
[8]
  Activity: 10%
[9]
  inhibition at 10 ppm: 18.6%
[10]
  inhibition at 100 ppm: 39.3%
[11]
  Activity: 40%

## O=C(COc1ccc(Cl)cc1Cl)NC(=S)Nc1nnc(COc2ccc(Cl)cc2)s1
[2]
  inhibition at 1000 ppm: 57.2%
[3]
  inhibition at 1000 ppm: 47%
[5]
  inhibition at 10 ppm: 24.2%
[7]
  inhibition at 100 ppm: 25.4%
[9]
  inhibition at 10 ppm: 13%
[10]
  inhibition at 100 ppm: 36.2%

## O=C(COc1ccc(Cl)cc1Cl)NC(=S)Nc1nnc(COc2ccc(Cl)cc2Cl)s1
[2]
  inhibition at 1000 ppm: 54%
[3]
  inhibition at 1000 ppm: 46.4%
[5]
  inhibition at 10 ppm: 21.9%
[7]
  inhibition at 100 ppm: 25.2%
[9]
  inhibition at 10 ppm: 12.4%
[10]
  inhibition at 100 ppm: 32%

## Cc1ccc(OCc2nnc(NC(=S)NC(=O)c3ccc(Cl)cc3)s2)c(C)c1
[2]
  inhibition at 1000 ppm: 55.2%
[3]
  inhibition at 1000 ppm: 50.3%
[5]
  inhibition at 10 ppm: 22.8%
[7]
  inhibition at 100 ppm: 29%
[9]
  inhibition at 10 ppm: 18.4%
[10]
  inhibition at 100 ppm: 32.4%

## CC(=O)NC(=S)Nc1nnc(COc2ccc(C)cc2C)s1
[2]
  inhibition at 1000 ppm: 60.2%
[3]
  inhibition at 1000 ppm: 55.2%
[5]
  inhibition at 10 ppm: 20.2%
[7]
  inhibition at 100 ppm: 31.4%
[9]
  inhibition at 10 ppm: 20.5%
[10]
  inhibition at 100 ppm: 38.4%

## O=c1c2ccccc2nc2sc(COc3ccc(Cl)cc3Cl)nn12
[1]
  Activity: 20%
[2]
  inhibition at 1000 ppm: 54.4%
[3]
  inhibition at 1000 ppm: 43.1%
[4]
  Activity: 60%
[5]
  inhibition at 10 ppm: 23.4%
[6]
  Activity: 50%
[7]
  inhibition at 100 ppm: 25%
[8]
  Activity: 30%
[9]
  inhibition at 10 ppm: 12.6%
[10]
  inhibition at 100 ppm: 31.8%
[11]
  Activity: 80%

## Cc1ccc(OCc2nn3c(=O)c4ccccc4nc3s2)cc1
[1]
  Activity: 10%
[2]
  inhibition at 1000 ppm: 56.2%
[3]
  inhibition at 1000 ppm: 46%
[4]
  Activity: 50%
[5]
  inhibition at 10 ppm: 25.2%
[6]
  Activity: 40%
[7]
  inhibition at 100 ppm: 25.4%
[8]
  Activity: 40%
[9]
  inhibition at 10 ppm: 13.7%
[10]
  inhibition at 100 ppm: 35%
[11]
  Activity: 10%

## Cc1ccc(OCc2nn3c(=O)c4ccccc4nc3s2)cc1C
[1]
  Activity: 50%
[2]
  inhibition at 1000 ppm: 50.2%
[3]
  inhibition at 1000 ppm: 42.2%
[4]
  Activity: 60%
[5]
  inhibition at 10 ppm: 21.3%
[6]
  Activity: 40%
[7]
  inhibition at 100 ppm: 24.4%
[8]
  Activity: 50%
[9]
  inhibition at 10 ppm: 12.8%
[10]
  inhibition at 100 ppm: 38.6%
[11]
  Activity: 50%

## O=C(O)c1ccccc1Nc1nnc(COc2ccccc2Cl)s1
[2]
  inhibition at 1000 ppm: 52.4%
[3]
  inhibition at 1000 ppm: 47.3%
[5]
  inhibition at 10 ppm: 22.2%
[7]
  inhibition at 100 ppm: 25.8%
[9]
  inhibition at 10 ppm: 14%
[10]
  inhibition at 100 ppm: 30.4%

## Cc1ccc(OCc2nnc(Nc3ccccc3C(=O)O)s2)cc1
[2]
  inhibition at 1000 ppm: 59.1%
[3]
  inhibition at 1000 ppm: 52.2%
[5]
  inhibition at 10 ppm: 22.2%
[7]
  inhibition at 100 ppm: 31%
[9]
  inhibition at 10 ppm: 20.9%
[10]
  inhibition at 100 ppm: 39.1%

## O=C(O)c1ccccc1Nc1nnc(COc2ccc(Cl)cc2Cl)s1
[2]
  inhibition at 1000 ppm: 87.4%
[3]
  inhibition at 1000 ppm: 84.8%
[5]
  inhibition at 10 ppm: 60.8%
[7]
  inhibition at 100 ppm: 73%
[9]
  inhibition at 10 ppm: 68.5%
[10]
  inhibition at 100 ppm: 75.3%

## Cc1ccc(OCc2nnc(Nc3ccccc3C(=O)O)s2)cc1C
[2]
  inhibition at 1000 ppm: 57.4%
[3]
  inhibition at 1000 ppm: 50.2%
[5]
  inhibition at 10 ppm: 25.2%
[7]
  inhibition at 100 ppm: 29.1%
[9]
  inhibition at 10 ppm: 19%
[10]
  inhibition at 100 ppm: 30.4%

## COC(=O)Nc1nc2ccccc2[nH]1 [CARBENDAZIM]
[2]
  inhibition at 1000 ppm: 98%
[3]
  inhibition at 1000 ppm: 98.8%
[5]
  inhibition at 10 ppm: 78.3%
[7]
  inhibition at 100 ppm: 84.4%
[9]
  inhibition at 10 ppm: 78.6%
[10]
  inhibition at 100 ppm: 85.2%
